{"source": "patent US6376540B1", "about": "“Furan nitrone compounds” (Centaur Pharmaceuticals, Inc., priority 1996, dated 2002)", "key": {"Fas^1pr mutation mice": {"tested_on": "Fas^1pr mutation mice", "assay": "Learning deficit in autoimmune mice, active avoidance T-maze", "type": "in vivo", "procedure": "Male MRL/MpJ controls and Fas^1pr mutation mice were either dosed orally with 1% methylcellulose (“MC”) or with 100 mg/kg of N-isopropyl-α-(2-sulfofuran-5-yl)nitrone sodium salt (prepared in Example 1 above)(“test compound”) in 1% methylcellulose for 9-10 weeks. Following dosing, animals of approximately 4 months of age were tested in an active avoidance T-maze. In the one day test, animals were analyzed for acquisition to avoid shock within the first five trials of the test."}, "[1]": {"assay": "Free radical trapping, DCF oxidation, tert-butyl hydroperoxide system", "type": "biochemical", "settings": "100 μM test compound, 25 μM tert-butyl hydroperoxide, 50 μM DCF in MEM, 37° C., 2 hrs", "procedure": "Dichlorofluorescein (DCF) is a compound that fluoresces when oxidized by reactive oxygen species (ROS), such as hydroxyl, peroxyl, or alkoxyl free radicals. Test compounds were evaluated for their ability to scavenge radicals by determining their capacity to prevent the DCF oxidation in a radical generating environment. Two radical generating systems were used: (i) ferrous iron and (ii) tert-butyl hydroperoxide. When ferrous iron is placed in normoxic solution, it autooxidizes to produce ROS in the form of hydroxyl radicals, superoxide anion free radicals, and hydrogen peroxide. Similarly, when tert-butyl hydroperoxide is placed in non-chelated media, trace metals catalyze its oxidation to yield alkoxy, peroxyl, and alkyl free radicals.\nIn this assay, either 100 μM FeSO4 or 25 μM tert-butyl hydroperoxide were mixed with 50 μM DCF and 100 μM of the test compound in MEM and the mixture was incubated at 37° C. for 2 hrs. The fluorescence wavelengths measured were 485 nm for excitation and 530 nm for emission. In these tests, N-isopropyl-α-(2-sulfofuran-5-yl)nitrone sodium salt (prepared in Example 1 above) reduced fluorescence by 20% in the Fe^+2 assay and by 13% in the tert-butyl hydroperoxide assay. In comparison, a known free radical trap, N-tert-butyl-α-phenylnitrone (PBN) reduced fluorescence by 48% in the Fe^+2 assay and by 9% in the tert-butyl hydroperoxide assay."}, "rats": {"tested_on": "rats", "assay": "N-nitro-L-arginine-induced spatial learning deficit", "type": "in vivo, rat", "settings": "10 mg/kg 30 min before each of nine doses of N-nitro-L-arginine (100 mg/kg)", "description": "Treatment of rats with N-nitro-L-arginine, a nitric oxide synthase inhibitor, is known to cause a deficit in spatial learning. See, for example, G. A. Bohme et al., (1993) PNAS, 90:9191-9194. Rats treated with N-nitro-L-arginine wander aimlessly throughout their enclosure whereas untreated rats spend most of their time in the quadrant in which they are initially placed and stay away from the open area in the middle of the enclosure. This N-nitro-L-arginine-induced spatial learning deficit is used as a model for learning deficits caused by Alzheimer's disease and other dementias.\nIn this experiment, 10 mg/kg of N-isopropyl-α-(2-sulfofuran-5-yl)nitrone sodium salt (prepared in Example 1 above) or a control was administered 30 min before each of nine doses of N-nitro-L-arginine (100 mg/kg. iip.). The wanderings of the rats were then monitored. […] In contrast, rats treated with N-nitro-L-arginine and N-isopropyl-α-(2-sulfofuran-5-yl)nitrone sodium salt show a preference for the area of the enclosure into which they were first placed and rarely cross the center of the enclosure as illustrated in FIG. 3C. This behavior is essentially the same as rats treated with a saline control (i.e., without N-nitroL-arginine)(see FIG. 3A)."}, "synthetic Aβ(1-40)": {"target": "T1, synthetic Aβ(1-40) (Homo sapiens, UniProt P05067)", "T1 construct": "3 μL of Aβ(1-40)(3 μg) prepared with dH2O", "T1 sequence (P05067 672-711 limits assumed)": "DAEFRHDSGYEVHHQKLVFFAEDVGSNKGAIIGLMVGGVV", "assay": "Inhibition of Aβ(1-40) beta-pleated sheet formation (ThT fluorescence)", "type": "biochemical", "settings": "10 μM compound, ThT 3 μM, PBS pH 6.0, 12 hours; read-out: inhibition of Aβ(1-40) beta-pleated sheet formation compared to the controls", "description": "The deposition of amyloid β-peptide (Aβ) is associated with the development of Alzheimer's disease. See, for example, G. G. Glenner et al. (1984) Biochem. Biophys. Res. Commun., 120:885-890; and R. E. Tanzi (1989) Ann. Med., 21:91-94. Accordingly, compounds which effectively disrupt the formation of Aβ(1-40) or Aβ(1-42) beta-pleated sheets are potentially useful for preventing and/or reversing such amyloid deposits. Thioflavin T (ThT) is known to rapidly associate with beta-pleated sheets, particularly the aggregated fibrils of synthetic Aβ(1-40). This association gives rise to a new excitation maximum at 440 nm and to enhanced emission at 490 nm.\nThe experiments were performed using a CytoFluor II fluorescence plate reader having the following parameters:\nInto each well was aliquoted 95 μl of ThT (3 μM) prepared in PBS (pH 6.0), 2 μL of the compound to be tested (10 μM) prepared with 0.05% of methylcellulose in PBS (pH 6.0), and 3 μL of Aβ(1-40)(3 μg) prepared with dH2O (the compounds prepared in Examples 1, 3, 4, 5, 6, 7, 8, 9, 11 and 12 were tested). The fluorescence measurement began when the Aβ(1-40) was added and continued for a total of 12 hours. The percent inhibition of beta-pleated sheet formation was calculated from the relative fluorescence unit difference between aggregation in the presence and in the absence of the test compounds."}, "[2]": {"tested_on": "primary neuronal/astrocyte cultures", "assay": "Protection against Aβ(1-40)-induced neuronal cell loss", "type": "cell-based, Sprague Dawley rat", "settings": "similar manner using Aβ(1-40) instead of Aβ(25-35)", "procedure": "Patients with Alzheimer's disease are known to suffer a progressive loss of neuronal cells. See, for example, P. J. Whitehause et al., (1982) Science, 215:1237-1239. […] Sprague Dawley rat hippocampus of 18-day-gestation embryos was excised and then dissociated by trituration to prepare primary neuronal/astrocyte cultures. Cells (3×10^5) were plated on 35 mm poly-D-lysine-coated plates containing Eagle's minimum essential medium supplemented with 10% fetal bovine serum. After 3-5 hours, the original medium was removed and replaced with 1 mL of fresh medium. Cultures were maintained at 37° C. in a 5% CO2/95% air humidified incubator.\nTo the cells (7 DIV) was added 30 μM of Aβ(25-35) dissolved in dH2O (stored at −20° C.) and 100 μM of the test compound (i.e., a compound of Example 1, 3, 4, 5, 6, 7, 8, 12 or 13 above) in 1% methylcellulose. Controls were also conducted without the test compound. The percentage of morphologically viable neurons was determined counting the number of viable neurons after 96 hours treatment compared to the number of neurons before treatment in the same premarked culture regions (three regions/culture, n=6).\nIn experiments conducted in a similar manner using Aβ(1-40) instead of Aβ(25-35), the compound prepared in Example 1 above reduced Aβ(1-40)-induced neuronal cell loss by 46% compared to the controls."}}, "data": [{"smiles": "CC(C)[N+]([O-])=Cc1ccc(S(=O)(=O)O)o1", "note": "[Example 1, N-Isopropyl-α-(2-sulfofuran-5-yl)nitrone]", "values": [{"measurement": "protection in acquisition learning deficit compared to Fas mutated animals receiving only 1% methylcellulose", "setting": "Fas^1pr mutation mice; 100 mg/kg orally for 9-10 weeks, two experiments combined (n=14-15)", "result": 50, "unit": "%"}, {"measurement": "Mean Acquisition Values (Maximum score of 5.0)", "setting": "Fas^1pr mutation mice; Fas^1pr mice, 100 mg/kg orally in 1% methylcellulose for 9-10 weeks, first five trials", "result": "Mean = 1.467"}, {"measurement": "reduced fluorescence in the tert-butyl hydroperoxide assay", "setting": "[1]", "result": 13, "unit": "%"}, {"measurement": "spatial learning deficit caused by N-nitro-L-arginine", "setting": "rats", "result": "prevents the spatial learning deficit"}, {"measurement": "inhibition at 10 µM", "setting": "synthetic Aβ(1-40)", "result": "15 to 71", "unit": "%"}, {"measurement": "reduction of Aβ(1-40)-induced neuronal cell loss compared to the controls", "setting": "[2]", "result": 46, "unit": "%"}]}]}
